These results are taken from patent US20090264384A1, “INDOLE, BENZIMIDAZOLE, AND BENZOLACTAM BORONIC ACID COMPOUNDS, ANALOGS THEREOF AND METHODS OF USE THEREOF” (Nuada, Inc., priority 2004, published 2009).

Data set [1] concerns the target T1, Phosphodiesterase 5(h) (Homo sapiens, UniProt O76074).
T1 construct: human platelets; from tissue; host or cells: human platelets
Briefly: Phosphodiesterase 5(h) enzyme assay. Format: biochemical. The following applies: Hill coefficient, Phosphodiesterase 5(h).

In data set [2] the test system is α1 (non-selective). Briefly: α1 (non-selective) binding assay. On the set-up: species or system rat.
Data set [3] deals with T2, 5-HT transporter(h) (Homo sapiens, UniProt P31645).
T2 construct: expressed in transfected cells; host or cells: HEK-293 cells
The experiment in a line: 5-HT transporter(h) binding assay. The following applies: Hill coefficient, reference compound.

Data set [4] addresses Phosphodiesterase 3(h) (Homo sapiens, UniProt Q14432). The experiment in a line: Phosphodiesterase 3(h) enzyme assay. Format: biochemical. The following applies: Hill coefficient, Phosphodiesterase 3(h).
Data set [5] has as its target Catechol-O-methyl transferase. The experiment in a line: Catechol-O-methyl transferase enzyme assay. Format: biochemical, porcine. The conditions noted are these: reference compound, Catechol-O-methyl transferase.
Data set [6] deals with chronic colitis provoked by trinitrobenzene sulphonic acid (TNBS). Briefly: Rat model of chronic colitis provoked by TNBS over 14 days, treatment from Day 1. Format: in vivo. The following applies: 3 mg/kg i.v. on Day 1 and Day 7. An excerpt: In the chronic model of colitis, assessment of the colonic inflammation is made 14 days or longer, after the intracolonic challenge with TNBS (Boughton-Smith et al, 1988a, 1988b; Wallace et al, 1989; Rachmilewitz et al, 1989; Wallace and Keenan, 1990; Ameho et al, 1987; Sans et al, 1999; Sun et al, 2001; Maric et al, 2003; Moreels et al, 2004; Gonzalez et al, 2004). This model allows treatment with experimental agents to commence following the establishment of the colonic injury, typically 24 hours after the TNBS challenge (Galvez et al, 2000, Villegas, 2003, Gonzalez et al, 2004). The model should therefore identify the ability of the experimental compounds to accelerate the diminution of the inflammatory response and to promote healing of the colonic lesions. This model thus has relevance additional to the acute model, as the clinical correlate is the therapeutic intervention in patients with existing IBD not in remission or with flare-up, to reduce the crisis. This contrasts with the acute TNBS model where the compounds are administered one or two days prior to challenge, the clinical correlate being the use of prophylactic therapy to prevent flare-up and maintain remission in IBD patients.
In this current study, the low intracolonic challenge concentration of TNBS used in the acute studies was also used for the chronic study over a 14 day period. This concentration and timing was based on the findings from pilot studies where a range of concentrations of TNBS and treatment conditions were evaluated over a 14 day period. […].
The methods and protocol used were substantially similar to those in Example 39-40, with some differences described below.
TNBS Challenge. Male Wistar rats (average body weight, 210 g) were randomised into groups before commencement of the study. In all groups, including the non-challenged and non-treated absolute control group, food was withdrawn for 12 h before TNBS administration (i.e. overnight on Day −1), but the rats were allowed free access to drinking water.
On the morning of the day of challenge (Day 0, between 9.00 and 1 1.00 a.m.), the rats were transiently anaesthetised with ether and the TNBS solution (10 mg in 0.25 ml of 50% ethanol) was instilled approximately 6-8 cm into the colon using a soft plastic catheter inserted in the rat rectum. The rats were allowed to recover with free access to food and drinking water. At the end of the experiment, on the morning of Day 14, between 9.00 and 11.00), the colon was dissected, and the distal 8 cm photographed and immediately processed or stored appropriately for subsequent analyses.
The following primary parameters were measured in the study: macroscopic scoring of distal 8 cm of colon; myeloperoxidase levels in segments of distal 8 cm of colon; TNF-α levels in segments of distal 8 cm of colon.
In addition, the weight of the standard colonic segment was assessed as an indirect and non-specific marker of oedema. The body weight of the animals was also determined each evening of the study, starting on Day-1, and also on the morning of Day 14. The data is shown graphically as the % change from the weight on Day-1, prior to challenge.
Treatments. The TNBS challenged groups for study were: (a) Vehicle control 0.5% carboxy methyl cellulose (CMC) p.o., twice daily from Day; (b) CCI-7506 25 mg/kg, p.o., twice daily from Day 1 (50 mg/kg/day total); (c) CCI-7506 50 mg/kg, p.o., twice daily from Day 1 (100 mg/kg/day total); (d) CCI-7507 12.5 mg/kg, p.o., twice daily from Day 1 (25 mg/kg/day total); (e) CCI-7507 25 mg/kg, p.o., twice daily from Day 1(50 mg/kg/day total); […]; (g) Infliximab 3 mg/kg, single slow i.v. injection, on Day 1 and Day7.
The experimental compounds that were administered orally were given twice a day from Day 1, i.e. 24 h following TNBS administration, for the remainder of the 14 day experimental period. Infliximab was administered by slow i.v. injection of Day 1 and on Day 7. […]

The test system of data set [7] is TNBS colitis. The conditions noted are these: single intravenous dose pre-treatment; 8 days after TNBS challenge; cited from earlier work.
Data set [8] addresses T3, DA transporter(h) (Homo sapiens, UniProt Q01959).
T3 construct: expressed in transfected cells; host or cells: CHO cells
The experiment in a line: DA transporter(h) binding assay.

The subject of data set [9] is Cl-channel. Briefly: Cl-channel binding assay. Further details: species or system rat. The conditions noted are these: Hill coefficient, reference compound.
The target in data set [10] is T4, Acetylcholinesterase(h) (Homo sapiens, UniProt P22303).
T4 construct: host or cells: HEK-293 cells
The experiment in a line: Acetylcholinesterase(h) enzyme assay. Format: biochemical. The conditions noted are these: Hill coefficient, Acetylcholinesterase(h).

Data set [11] concerns the target Cytochrome P450 (CYP) (Homo sapiens, UniProt P05177).
Data set [12] deals with Cytochrome P450 (CYP) (Homo sapiens, UniProt P10635). The experiment in a line: ADME-Tox: In vitro Metabolism (Cytochrome P450, fluorogenic substrates BFC, CEC, MFC). The following applies: Hill coefficient, CYP2D6 Inhibition (7-MFC substrate).
Data set [13] deals with Cytochrome P450 (CYP) (Homo sapiens, UniProt P11712). The description is as above. The following applies: Hill coefficient, CYP2C9 Inhibition (7-MFC substrate).
For data set [14], the target named is Phosphodiesterase 1. Briefly: Phosphodiesterase 1 enzyme assay. Format: biochemical, bovine. The conditions noted are these: reference compound, Phosphodiesterase 1.
Data set [15] concerns the target Ca^2+ channel (L, diltiazem site) (benzothiazepines) (Rattus norvegicus, UniProt P22002). The experiment in a line: Ca^2+ channel (L, diltiazem site) binding assay.
The target in data set [16] is T5, NE transporter(h) (Homo sapiens, UniProt P23975).
T5 construct: expressed in transfected cells; host or cells: MDCK cells
The experiment in a line: NE transporter(h) binding assay. The conditions noted are these: Hill coefficient, reference compound.

Chain of Cytochrome P450 (CYP) (Homo sapiens, UniProt P05177) (P05177 whole entry): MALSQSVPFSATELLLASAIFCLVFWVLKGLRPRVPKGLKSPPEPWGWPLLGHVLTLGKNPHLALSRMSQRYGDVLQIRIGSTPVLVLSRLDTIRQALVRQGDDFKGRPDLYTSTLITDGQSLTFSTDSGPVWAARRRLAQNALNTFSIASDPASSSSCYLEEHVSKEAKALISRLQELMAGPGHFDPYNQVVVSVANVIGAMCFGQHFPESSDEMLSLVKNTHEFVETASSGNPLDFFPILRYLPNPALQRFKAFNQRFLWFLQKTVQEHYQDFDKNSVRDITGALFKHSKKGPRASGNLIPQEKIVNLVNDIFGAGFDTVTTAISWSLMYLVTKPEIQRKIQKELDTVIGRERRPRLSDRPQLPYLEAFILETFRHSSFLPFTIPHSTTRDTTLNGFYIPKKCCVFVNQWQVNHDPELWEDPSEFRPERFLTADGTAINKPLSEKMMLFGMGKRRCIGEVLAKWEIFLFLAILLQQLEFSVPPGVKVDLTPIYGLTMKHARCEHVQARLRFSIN
Chain of Cytochrome P450 (CYP) (Homo sapiens, UniProt P11712) (P11712 whole entry): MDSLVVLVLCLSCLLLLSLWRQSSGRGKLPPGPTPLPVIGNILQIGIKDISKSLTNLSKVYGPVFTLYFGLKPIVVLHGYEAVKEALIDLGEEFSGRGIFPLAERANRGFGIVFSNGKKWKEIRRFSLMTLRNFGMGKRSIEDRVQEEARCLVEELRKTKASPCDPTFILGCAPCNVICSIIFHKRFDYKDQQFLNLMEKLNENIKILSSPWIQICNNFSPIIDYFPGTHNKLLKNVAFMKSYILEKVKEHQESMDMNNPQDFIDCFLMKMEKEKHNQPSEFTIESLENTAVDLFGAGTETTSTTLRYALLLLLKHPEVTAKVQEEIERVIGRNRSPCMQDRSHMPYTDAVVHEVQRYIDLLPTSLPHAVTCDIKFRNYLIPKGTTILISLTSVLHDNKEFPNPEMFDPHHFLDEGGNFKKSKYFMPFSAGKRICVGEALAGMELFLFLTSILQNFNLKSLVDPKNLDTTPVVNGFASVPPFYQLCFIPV
Chain of Catechol-O-methyl transferase (Q99028 whole entry): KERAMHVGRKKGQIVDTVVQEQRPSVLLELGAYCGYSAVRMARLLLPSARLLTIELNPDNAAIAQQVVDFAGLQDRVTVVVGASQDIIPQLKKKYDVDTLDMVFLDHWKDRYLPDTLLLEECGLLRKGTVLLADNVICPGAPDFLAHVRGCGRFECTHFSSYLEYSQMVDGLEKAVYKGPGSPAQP
T3 sequence (Q01959 whole entry): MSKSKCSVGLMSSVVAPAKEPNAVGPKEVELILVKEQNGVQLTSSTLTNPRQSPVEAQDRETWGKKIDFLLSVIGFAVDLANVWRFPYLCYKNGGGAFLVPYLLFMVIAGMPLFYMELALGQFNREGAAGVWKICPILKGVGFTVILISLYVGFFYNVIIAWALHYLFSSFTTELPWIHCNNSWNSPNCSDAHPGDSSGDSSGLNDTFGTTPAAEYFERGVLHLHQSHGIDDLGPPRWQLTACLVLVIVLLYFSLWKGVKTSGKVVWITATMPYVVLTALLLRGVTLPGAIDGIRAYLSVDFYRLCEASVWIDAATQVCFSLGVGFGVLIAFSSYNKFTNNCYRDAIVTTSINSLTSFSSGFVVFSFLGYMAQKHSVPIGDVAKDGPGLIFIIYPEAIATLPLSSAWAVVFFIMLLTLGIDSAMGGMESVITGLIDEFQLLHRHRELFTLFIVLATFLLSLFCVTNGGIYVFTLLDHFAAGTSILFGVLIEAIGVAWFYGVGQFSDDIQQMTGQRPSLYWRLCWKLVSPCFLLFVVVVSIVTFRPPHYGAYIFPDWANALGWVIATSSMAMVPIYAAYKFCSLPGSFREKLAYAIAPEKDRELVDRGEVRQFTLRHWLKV
Chain of Phosphodiesterase 3(h) (Q14432 674-1093 limits assumed): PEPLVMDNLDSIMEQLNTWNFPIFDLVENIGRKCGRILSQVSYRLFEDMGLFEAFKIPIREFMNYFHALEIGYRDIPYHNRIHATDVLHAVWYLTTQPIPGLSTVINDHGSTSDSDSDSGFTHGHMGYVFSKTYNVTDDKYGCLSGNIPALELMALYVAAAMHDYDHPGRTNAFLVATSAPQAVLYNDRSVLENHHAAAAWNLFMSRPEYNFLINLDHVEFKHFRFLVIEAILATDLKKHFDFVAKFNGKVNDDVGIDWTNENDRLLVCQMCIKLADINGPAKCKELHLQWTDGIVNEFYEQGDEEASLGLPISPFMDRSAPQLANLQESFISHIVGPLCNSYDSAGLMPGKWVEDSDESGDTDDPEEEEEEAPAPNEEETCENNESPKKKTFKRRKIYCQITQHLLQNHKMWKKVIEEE
T2 sequence (P31645 whole entry): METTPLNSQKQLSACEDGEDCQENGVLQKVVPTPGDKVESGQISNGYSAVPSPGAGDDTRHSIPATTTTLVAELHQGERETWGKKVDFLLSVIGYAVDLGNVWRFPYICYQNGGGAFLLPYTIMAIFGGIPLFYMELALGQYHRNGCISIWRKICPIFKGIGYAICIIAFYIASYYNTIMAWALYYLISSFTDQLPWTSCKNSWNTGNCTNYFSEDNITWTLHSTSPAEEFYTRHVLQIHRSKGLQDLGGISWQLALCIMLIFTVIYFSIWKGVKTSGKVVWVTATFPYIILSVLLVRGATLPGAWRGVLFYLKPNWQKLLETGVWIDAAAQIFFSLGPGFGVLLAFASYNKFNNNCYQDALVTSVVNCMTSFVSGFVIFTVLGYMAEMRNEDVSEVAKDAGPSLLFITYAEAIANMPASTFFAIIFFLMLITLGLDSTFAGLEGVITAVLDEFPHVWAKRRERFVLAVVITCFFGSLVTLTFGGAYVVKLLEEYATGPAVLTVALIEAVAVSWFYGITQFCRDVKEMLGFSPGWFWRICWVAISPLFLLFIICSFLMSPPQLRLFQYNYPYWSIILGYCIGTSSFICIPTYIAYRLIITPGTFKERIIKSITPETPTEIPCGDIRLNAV
T5 sequence (P23975 whole entry): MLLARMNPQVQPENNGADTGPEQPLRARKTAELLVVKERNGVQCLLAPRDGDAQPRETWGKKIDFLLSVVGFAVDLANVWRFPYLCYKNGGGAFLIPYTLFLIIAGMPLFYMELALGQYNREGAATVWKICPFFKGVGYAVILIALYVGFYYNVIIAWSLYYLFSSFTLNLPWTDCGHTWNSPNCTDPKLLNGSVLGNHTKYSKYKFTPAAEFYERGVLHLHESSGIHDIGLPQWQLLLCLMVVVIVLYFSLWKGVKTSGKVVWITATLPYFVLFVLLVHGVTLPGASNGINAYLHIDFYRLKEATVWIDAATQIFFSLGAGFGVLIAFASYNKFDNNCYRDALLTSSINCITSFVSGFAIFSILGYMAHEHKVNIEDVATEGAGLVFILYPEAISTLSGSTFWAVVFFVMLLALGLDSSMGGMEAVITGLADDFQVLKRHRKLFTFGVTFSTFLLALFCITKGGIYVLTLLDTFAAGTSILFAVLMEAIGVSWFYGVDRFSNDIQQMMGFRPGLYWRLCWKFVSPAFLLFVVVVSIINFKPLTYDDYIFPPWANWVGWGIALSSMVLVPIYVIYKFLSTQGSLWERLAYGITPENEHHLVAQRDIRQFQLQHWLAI
Chain of Cytochrome P450 (CYP) (Homo sapiens, UniProt P10635) (P10635 whole entry): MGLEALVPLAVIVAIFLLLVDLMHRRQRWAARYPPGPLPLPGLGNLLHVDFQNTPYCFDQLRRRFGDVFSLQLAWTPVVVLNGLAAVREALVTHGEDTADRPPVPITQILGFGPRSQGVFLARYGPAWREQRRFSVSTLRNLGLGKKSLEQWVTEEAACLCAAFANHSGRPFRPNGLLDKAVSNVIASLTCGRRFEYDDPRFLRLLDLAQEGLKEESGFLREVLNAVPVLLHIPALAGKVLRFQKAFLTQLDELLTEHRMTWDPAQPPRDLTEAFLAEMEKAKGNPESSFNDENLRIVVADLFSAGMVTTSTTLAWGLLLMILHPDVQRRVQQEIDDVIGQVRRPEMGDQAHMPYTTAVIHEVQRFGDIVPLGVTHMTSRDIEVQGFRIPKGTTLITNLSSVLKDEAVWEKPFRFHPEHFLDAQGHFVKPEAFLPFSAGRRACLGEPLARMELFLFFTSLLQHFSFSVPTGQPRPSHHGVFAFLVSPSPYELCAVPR
T4 sequence (P22303 32-614): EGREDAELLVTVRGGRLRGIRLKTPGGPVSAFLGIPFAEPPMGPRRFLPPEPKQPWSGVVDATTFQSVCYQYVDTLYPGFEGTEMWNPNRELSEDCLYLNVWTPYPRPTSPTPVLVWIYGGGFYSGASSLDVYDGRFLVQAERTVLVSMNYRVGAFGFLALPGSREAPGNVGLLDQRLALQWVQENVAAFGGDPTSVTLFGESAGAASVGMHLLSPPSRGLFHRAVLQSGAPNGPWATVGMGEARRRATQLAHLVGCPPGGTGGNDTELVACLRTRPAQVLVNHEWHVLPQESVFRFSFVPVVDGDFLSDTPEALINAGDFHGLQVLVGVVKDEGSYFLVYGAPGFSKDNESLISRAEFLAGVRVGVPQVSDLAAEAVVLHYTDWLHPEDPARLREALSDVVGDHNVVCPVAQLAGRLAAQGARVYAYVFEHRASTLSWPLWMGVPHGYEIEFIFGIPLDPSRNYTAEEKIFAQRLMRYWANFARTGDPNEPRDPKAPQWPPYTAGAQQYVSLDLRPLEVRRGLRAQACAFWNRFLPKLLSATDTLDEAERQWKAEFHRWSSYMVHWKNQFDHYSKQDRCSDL

Compound `OCCN(CCO)c1nc(N2CCCCC2)c2nc(N(CCO)CCO)nc(N3CCCCC3)c2n1` [dipyridamole] displayed a nH in [1] of 1.5.
`COc1cc2nc(N3CCN(C(=O)c4ccco4)CC3)nc(N)c2cc1OC` [prazosin, reference compound]: the nH in data set [2] worked out at 1.6.
For the compound `CN(C)CCCN1c2ccccc2CCc2ccccc21` [imipramine, reference compound], the nH in data set [3] is recorded as 1.0.
With `Cc1[nH]c(=O)c(C#N)cc1-c1ccncc1` [milrinone], the nH in [4] was found to be 0.8.
Regarding Ro 41-0960, the IC50 (usually the concentration that gives 50% inhibition) in data set [5] was 51 nM.
As to infliximab, in data set [6] (Day 14), the “macroscopic Damage Score” value was “reduced the damage score”. Further, in [6] (Day 14, vs CMC group), the “reduction in colon weight” value is on record as “significant (P<0.05) reduction in colon weight”, the “reduction in colonic MPO activity” value was “significantly attenuated the increase in MPO”, the “reduction in colonic TNF-α levels” value was “significantly attenuated the increase in TNF-α levels” and the “reduction in colonic lesion area (% of the total area measured)” value was “significantly attenuated the area of injury”. Further, in data set [6] (over 14 days, vs CMC group), the “attenuation of TNBS-induced fall in body weight (% change of body weight at Day −1)” value was “significant on Day 2 and 3”. For the same compound, in [7], the “macroscopic injury, colonic MPO and TNF-α levels” value is “found to reduce the macroscopic injury, colonic MPO and TNF-α levels”.
In [8], `c1ccc2sc(C3(N4CCCCC4)CCCCC3)cc2c1` [BTCP, reference compound] showed a nH of 0.5.
As to `C=C(C)[C@@H]1[C@H]2OC(=O)[C@@H]1[C@]1(O)C[C@H]3O[C@]34C(=O)O[C@H]2[C@]14C` [picrotoxinin, reference compound], the nH in [9] was found to be 0.9.
In [10], `CN(C)C(=O)Oc1cccc([N+](C)(C)C)c1` [neostigmine] showed a nH of 1.5.
In the case of `Cc1nc2c([nH]1)c(=O)n(C)c(=O)n2Cc1ccco1` [furafylline], the nH in data set [11] is 0.6.
As for `C=C[C@H]1C[N@@]2CC[C@H]1C[C@@H]2[C@@H](O)c1ccnc2ccc(OC)cc12` [quinidine], the nH in data set [12] is on record as 0.9.
As to `Nc1ccc(S(=O)(=O)Nc2ccnn2-c2ccccc2)cc1` [sulfaphenazole], the nH in [13] is 1.0.
In data set [14], `COc1nc2c([nH]1)c(=O)n(C)c(=O)n2CC(C)C` [Example 8-methoxy-IBMX] gave an IC50 of 2400 nM.
Regarding `COc1ccc([C@@H]2Sc3ccccc3N(CCN(C)C)C(=O)[C@@H]2OC(C)=O)cc1` [diltiazem, reference compound], the nH in [15] is given as 0.9.
Compound `CNCCCC1c2ccccc2C=Cc2ccccc21` [protriptyline, reference compound] showed a nH in data set [16] of 1.7.
